Results taken from the METLIN SMRT retention time set (Domingo-Almenara et al. 2019).

Assay: gradient 5% acetonitrile 3 min, to 50% in 2 min, to 85% in 15 min, held 3 min, 100 µL/min
Settings: column: Zorbax Extend-C18 2.1 x 50 mm; eluents: water / acetonitrile, 0.1% formic acid
In short: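 Over 3 months, pure standards in mixtures of ~100 molecules were run by HPLC coupled to a quadrupole time-of-flight mass spectrometer in positive and negative ionization mode. The column was a Zorbax Extend-C18 (2.1 × 50 mm, 1.8 μm) at 100 μL/min, eluted with water and acetonitrile each holding 0.1% formic acid, with 40 μL dead and 900 μL dwell volumes. Retention time was determined from adduct peaks chosen by software and checked manually.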
For `Cc1sc2ccn(Cc3ccc(F)cc3)c(=O)c2c1C(=O)N1CCCC1`, the RP-LC retention time was 764 s.
For `Cc1c(Cl)cccc1Nc1c(-c2ccccc2)nc2cnccn12`, the RP-LC retention time was 997 s.
Compound `O=C(CCC(=O)N1CCN(c2ccc(=O)n(-c3ccc(Cl)cc3)n2)CC1)N1CCOCC1` has an RP-LC retention time of 659 s.
`Cn1nc(C(=O)N2CCCCC2)c2c1CCN(C(=O)CCC(=O)N1CCC(N3CCCCC3)CC1)C2` showed an RP-LC retention time of 586 s.
In the case of `O=C(NCc1cccs1)c1c(O)c2cccnc2n(Cc2ccccc2)c1=O`, the RP-LC retention time was 1310 s.
For `Cc1noc([C@@H]2CN(C(=O)c3ccc(Br)o3)C[C@H]2CO)n1`, the RP-LC retention time was 657 s.
Work on `NC(=O)c1cc(=O)[nH]c2ccccc12` yielded an RP-LC retention time of 546 s.
For `Cc1cccc(N2CCN(S(=O)(=O)c3ccc4c(c3)CCCC(=O)N4)CC2)c1C`, the RP-LC retention time was 983 s.
`Cc1ccc(S(=O)(=O)c2ccc(C(=O)N3CCN(c4ccccn4)CC3)cn2)cc1C` showed an RP-LC retention time of 658 s.
Compound `Cn1cc(C(=O)C(=O)NC2CCCCC2)c2ccccc21` has an RP-LC retention time of 1070 s.
`CCc1noc(NC(C)=O)c1-c1ccc(OC)c(S(=O)(=O)NCc2cccc(OC)c2)c1` gave an RP-LC retention time of 786 s.
`Cc1ccc(NC(=O)C2CC(=O)N(c3ccc4oc(C)nc4c3)C2)cc1` (configuration not stated) gave an RP-LC retention time of 749 s.
For `Cc1oc(-c2ccccc2)nc1Cn1ccn2nc(-c3ccc4c(c3)OCO4)cc2c1=O`, the RP-LC retention time was 1060 s.
`CC1CCCN(CC2CCN(S(=O)(=O)c3ccc4c(c3)CCC4)CC2)C1` (configuration not stated) gave an RP-LC retention time of 719 s.
Work on `Cc1nn(-c2ccccc2)c(C)c1S(=O)(=O)N1CCC(C(=O)Nc2cccc(C#N)c2)CC1` yielded an RP-LC retention time of 958 s.
Work on `CCN1C(=O)NC(c2ccccc2C(F)(F)F)C2=C1CN(CCC(=O)NCC(C)C)C2=O` (configuration not stated) yielded an RP-LC retention time of 661 s.
`COC(=O)c1ccc(C(=O)NCC2CCN(Cc3ccccc3SC)CC2)cc1` showed an RP-LC retention time of 567 s.
`CC1Oc2ccccc2OC1C(=O)Nc1sc2c(c1C#N)CCCC2` (configuration not stated) gave an RP-LC retention time of 1120 s.
Compound `CCCS(=O)(=O)N1CCC(N2C(=O)[C@H](OC)[C@@H]2c2ccncc2)CC1` has an RP-LC retention time of 700 s.
With `CCCN(CC1CCOC1)C(=O)Nc1ccccc1C` (configuration not stated) the RP-LC retention time was 768 s.
For `Cc1nc2c(sc3nc(-c4ccccc4)ccc32)c(=O)n1CC(=O)Nc1cc(F)cc(F)c1`, the RP-LC retention time was 1270 s.
`Cc1ccc2nc(-c3cccc(S(=O)(=O)N4CC(C)OC(C)C4)c3)cn2c1` (configuration not stated) gave an RP-LC retention time of 640 s.
`COc1ccccc1CCc1nc(C2CC(=O)N(C3CCCCC3)C2)no1` (configuration not stated) showed an RP-LC retention time of 989 s.
`Cc1cc2nn(CC(=O)Nc3cccc(Cl)c3)c(=O)n2c(Nc2ccccc2)n1` gave an RP-LC retention time of 1060 s.
`CCC(C)NC(=O)c1cn(-c2cc(-c3nc(C4CC4)no3)ccn2)cn1` (configuration not stated) gave an RP-LC retention time of 840 s.
With `NNC(=O)CNc1cccc(Br)c1` the RP-LC retention time was 673 s.
For `Cc1cc(C)c2c(N3CCCCC3)nc(C(=O)N3CCOCC3)nc2n1`, the RP-LC retention time was 608 s.
`CN(C)CCOc1ccc2c(c1)C(=O)/C(=C\c1ncc([N+](=O)[O-])n1C)C2` showed an RP-LC retention time of 695 s.
`O=C(Nc1cccc(F)c1)N1CCCC1c1nc(-c2cccc(F)c2)no1` (configuration not stated) gave an RP-LC retention time of 994 s.
With `Cn1cccc1C(=O)C(=O)Nc1ccc2c(c1)OCCO2` the RP-LC retention time was 842 s.
In the case of `Cc1cc(C)c(S(=O)(=O)N2CC(c3nc(-c4ccncc4)no3)C2)c(C)c1`, the RP-LC retention time was 978 s.
For `COCCCNC(=O)Cn1c(=O)n(-c2ccc(F)cc2)c2ncccc21`, the RP-LC retention time was 1390 s.
With `Cc1ccc(S(=O)(=O)n2ccn(C(=O)C(C)Oc3ccccc3)c2=O)cc1` (configuration not stated) the RP-LC retention time was 712 s.
Compound `O=C(Cn1cccc1-c1nc(-c2ccc3c(c2)OCO3)no1)Nc1ccc(Cl)cc1F` has an RP-LC retention time of 738 s.
`COc1cc(C[C@H](C)N)c(OC)cc1I` showed an RP-LC retention time of 705 s.
In the case of `CSc1ccc(CNC(=O)c2ccc3c(c2)NC(=O)C2CCCCN32)cc1` (configuration not stated), the RP-LC retention time was 850 s.
Compound `Cc1ccc(Sc2nccnc2N2CCC(C(=O)N3CCN(c4cccc(C)c4)CC3)CC2)cc1` has an RP-LC retention time of 1310 s.
